Test results taken from PMC11117652, “The Construction and Application of a New Screening Method for Phosphodiesterase Inhibitors” (Biosensors, 2024).
Several values for one entry are separate records, joined by “and”; a condition that tells them apart may be missing. Identical values can stand only once. Like-named read-outs stand apart in the source and are kept apart here.

Columns and labels:
[1] = tested on: cAMP-related PDEs; experiment: GloSensor live-cell screening model targeting cAMP (pGloSensor-22F cAMP plasmid in HEK293T cells, forskolin-stimulated); format: cell-based, human; details: for Luminescence Signal (%): cAMP cell screening model, (experimental group - blank control)/blank control luminescence x 100%, compound concentration not given; for IC50: Homo sapiens, HEK-293T, HEK293T cells, 5 μM forskolin, n = 3, read-out: IC50 detected using the cell screening model targeting cAMP
Experimental: The HEK293T human embryonic kidney cell line was purchased from SunnCell (Wuhan, China). After recovery, HEK293T cells were passaged 3–4 times a week and cultured at 37 °C in 5% CO2. The culture medium consisted of DMEM, 10% FBS, and 1% antibiotic solution.
Cells were grown to a density of 70–80% in a 6 cm culture dish, the original culture medium was discarded, and 3 mL Opti-MEM was added. A total of 5 μL lipo2000 transfection reagents and 7 μL plasmids were each diluted to 50 μL with Opti-MEM. The above two solutions were mixed, allowed to stand for 20 min, and then added to the cell culture medium. They were then incubated with 5% CO2 at 37 °C for 5 h. The original culture medium was discarded and replaced with the DMEM culture medium. After overnight cultivation at 37 °C and 5% CO2, the transfected cells were transferred to a 96-well plate and cultured under the same conditions for 9 h.
The original culture medium was replaced with 80 μL/well loaded culture medium (containing 2 mM D-Luciferin protein) and incubated at room temperature (20–23 °C) in the dark for 2 h. A total of 10 μL/well with a concentration of 50 μM forskolin (for cAMP testing) or 250 μM SNAP (for cGMP testing) was added to the sample culture medium to increase the level of background cyclic nucleotides in the cells. According to the detection requirements, a certain concentration of analytes was sequentially added to different wells, and the luminescence signal was measured using the SynergyNeo2 (Agilent, Santa Clara, CA, USA) instrument at time 0. The measurement was conducted every 5 min, and the longest duration was based on the start of the luminescence signal’s decline.
(§1) Data analysis was carried out using Microsoft Excel and GraphPad Prism 8 software (version 8.0.2 for Windows, GraphPad Software, San Diego, CA, USA). The data in the luminescence signal from the replica well were averaged to produce a response vs. time curve. The cell screening results of the compounds were expressed as percentages (the difference in luminescence signals between the experimental group and the blank control group/blank control group luminescence signal × 100%). For the measurement of IC50, at least seven concentrations of chemicals were used, and IC50 values were calculated using the nonlinear method.
Considering the detection efficiency, the possible toxicity of the reagent to cells, and the Z-factor, the optimal concentration of the AC agonist forskolin required for the cell screening model targeting cAMP was set at 5 μM.
To determine the shortest detection time for the two cell models, the luminescence signal–time curve was established. Based on the variations in luminescence detection values over time from two sets of data (Figure 2), it was determined that the detection time for cell screening models targeting cAMP should not be less than 35 min, while the detection time for cell screening models targeting cGMP should not be less than 30 min.

[2] = molecular target: T1, Recombinant human PDE7A/HCP1 protein (Homo sapiens, UniProt Q13946); experiment: In vitro enzymatic activity assay (PDE-Glo Phosphodiesterase Assay), PDE7A; format: biochemical
T1 construct: purchased Abcam ab125786
Experimental: (§2) Penicillin–Streptomycin solution (10,000 U/mL Penicillin, 10,000 μg/mL Streptomycin; Cat #C100C5) was obtained from NCM Biotech (Suzhou, China). Fetal Bovine Serum (FBS; Cat #BC-SE-FBS01) and phosphate-buffered saline (PBS; Cat #10010001) were obtained from Sbjbio (Nanjing, China). Trypsin-EDTA Solution (Cat #BL512A) was obtained from Biosharp (Hefei, China). DMEM medium (High Glucose; Cat #XB01-01) was obtained from VivaCell (Shanghai, China). Opti-MEM medium (Cat #Lvn1012A) was obtained from Livning (Beijing, China). […] The Lipofectamine™ 2000 Transfection Kit (Cat #11668500) was obtained from Thermo Fisher Scientific (Waltham, MA, USA). The pGloSensor™-22F cAMP Plasmid map (Cat #E2301), pGloSensor™-42F cGMP Plasmid map (Cat #CS177001), and PDE-Glo™ Phosphodiesterase Assay (Cat #V1361) were purchased from Promega (Madison, WI, USA). Recombinant human PDE4B protein (Cat #ab125582) and recombinant human PDE7A/HCP1 protein (Cat #ab125786) were obtained from Abcam (Cambridgeshire, UK). Compounds 1–7 were provided by Guoqiang Li’s research group (School of Medicine and Pharmacy, Ocean University, Qingdao, China).
(§3) The inhibitory activities of the compounds against PDE4B and PDE7A were determined according to the procedures required for the PDE-Glo™ Phosphodiesterase Assay.
as §1

[3] = molecular target: T2, Recombinant human PDE4B protein (Homo sapiens, UniProt Q07343); experiment: In vitro enzymatic activity assay (PDE-Glo Phosphodiesterase Assay), PDE4B; format: biochemical
T2 construct: purchased Abcam ab125582
Experimental: as §2, with “UK).” for “UK). Compounds 1–7 were provided by Guoqiang Li’s research group (School of Medicine and Pharmacy, Ocean University, Qingdao, China).”
as §3
Data analysis was carried out using Microsoft Excel and GraphPad Prism 8 software (version 8.0.2 for Windows, GraphPad Software, San Diego, CA, USA). The data in the luminescence signal from the replica well were averaged to produce a response vs. time curve. […] For the measurement of IC50, at least seven concentrations of chemicals were used, and IC50 values were calculated using the nonlinear method.

[4] = tested on: cGMP-related PDEs; experiment: GloSensor live-cell screening model targeting cGMP (pGloSensor-42F cGMP plasmid in HEK293T cells, SNAP-stimulated); format: cell-based; details: Homo sapiens, HEK-293T, read-out: IC50 detected using the cell screening model targeting cGMP
Experimental: The HEK293T human embryonic kidney cell line was purchased from SunnCell (Wuhan, China). After recovery, HEK293T cells were passaged 3–4 times a week and cultured at 37 °C in 5% CO2. The culture medium consisted of DMEM, 10% FBS, and 1% antibiotic solution. Cells were grown to a density of 70–80% in a 6 cm culture dish, the original culture medium was discarded, and 3 mL Opti-MEM was added. A total of 5 μL lipo2000 transfection reagents and 7 μL plasmids were each diluted to 50 μL with Opti-MEM. The above two solutions were mixed, allowed to stand for 20 min, and then added to the cell culture medium. They were then incubated with 5% CO2 at 37 °C for 5 h. The original culture medium was discarded and replaced with the DMEM culture medium. After overnight cultivation at 37 °C and 5% CO2, the transfected cells were transferred to a 96-well plate and cultured under the same conditions for 9 h. The original culture medium was replaced with 80 μL/well loaded culture medium (containing 2 mM D-Luciferin protein) and incubated at room temperature (20–23 °C) in the dark for 2 h. A total of 10 μL/well with a concentration of 50 μM forskolin (for cAMP testing) or 250 μM SNAP (for cGMP testing) was added to the sample culture medium to increase the level of background cyclic nucleotides in the cells. According to the detection requirements, a certain concentration of analytes was sequentially added to different wells, and the luminescence signal was measured using the SynergyNeo2 (Agilent, Santa Clara, CA, USA) instrument at time 0. The measurement was conducted every 5 min, and the longest duration was based on the start of the luminescence signal’s decline. Data analysis was carried out using Microsoft Excel and GraphPad Prism 8 software (version 8.0.2 for Windows, GraphPad Software, San Diego, CA, USA). The data in the luminescence signal from the replica well were averaged to produce a response vs. time curve. The cell screening results of the compounds were expressed as percentages (the difference in luminescence signals between the experimental group and the blank control group/blank control group luminescence signal × 100%). For the measurement of IC50, at least seven concentrations of chemicals were used, and IC50 values were calculated using the nonlinear method. […] Similar to the cell screening models targeting cAMP, the cell screening models targeting cGMP could not effectively detect the ability of sildenafil to increase intracellular cGMP levels when the GC agonist SNAP was not present or was at low concentrations. […] To determine the shortest detection time for the two cell models, the luminescence signal–time curve was established.

[5] = tested on: PDE5; design: method as in PMID 12646997; details: cited from earlier work
[6] = HEK293T cells, 25 μM SNAP, n = 3

T1 sequence (Q13946 whole entry): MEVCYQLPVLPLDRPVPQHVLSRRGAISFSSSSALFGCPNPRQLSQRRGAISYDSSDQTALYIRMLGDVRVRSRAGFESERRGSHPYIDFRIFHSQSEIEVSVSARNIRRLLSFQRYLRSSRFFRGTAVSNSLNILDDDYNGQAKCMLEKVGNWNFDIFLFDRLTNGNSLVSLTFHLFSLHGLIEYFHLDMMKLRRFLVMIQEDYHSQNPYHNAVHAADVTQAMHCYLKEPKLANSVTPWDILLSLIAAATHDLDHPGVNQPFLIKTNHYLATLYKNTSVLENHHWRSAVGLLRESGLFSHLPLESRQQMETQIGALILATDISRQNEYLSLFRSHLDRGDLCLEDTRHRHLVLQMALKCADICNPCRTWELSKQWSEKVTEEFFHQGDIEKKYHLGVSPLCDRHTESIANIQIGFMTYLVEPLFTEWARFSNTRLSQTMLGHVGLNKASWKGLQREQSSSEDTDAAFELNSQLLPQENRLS
T2 sequence (Q07343 whole entry): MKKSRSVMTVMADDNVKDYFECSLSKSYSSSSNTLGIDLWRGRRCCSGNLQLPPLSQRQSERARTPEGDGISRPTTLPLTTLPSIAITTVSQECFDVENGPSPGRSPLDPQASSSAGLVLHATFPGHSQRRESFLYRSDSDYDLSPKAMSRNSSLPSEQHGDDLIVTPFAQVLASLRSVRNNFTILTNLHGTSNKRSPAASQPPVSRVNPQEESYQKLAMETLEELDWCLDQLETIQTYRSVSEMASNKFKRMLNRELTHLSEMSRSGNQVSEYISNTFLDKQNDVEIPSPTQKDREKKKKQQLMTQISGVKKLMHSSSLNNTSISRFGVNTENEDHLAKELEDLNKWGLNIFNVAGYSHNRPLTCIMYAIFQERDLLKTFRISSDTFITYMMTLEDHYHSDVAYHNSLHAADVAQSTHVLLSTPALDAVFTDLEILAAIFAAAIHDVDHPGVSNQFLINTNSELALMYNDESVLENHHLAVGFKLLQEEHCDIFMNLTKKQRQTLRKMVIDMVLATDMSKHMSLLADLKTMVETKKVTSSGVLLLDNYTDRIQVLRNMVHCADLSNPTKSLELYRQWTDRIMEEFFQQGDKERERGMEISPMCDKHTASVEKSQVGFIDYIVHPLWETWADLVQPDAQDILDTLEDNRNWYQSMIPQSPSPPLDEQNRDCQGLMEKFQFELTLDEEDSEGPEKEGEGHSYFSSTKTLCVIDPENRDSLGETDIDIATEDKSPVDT

SMILES | Luminescence Signal (%) [1] [%] | IC50 [2] | IC50 [3] [µM] | also measured
CC(=O)O[C@@H]1C(=O)CCC2=CCC[C@H](C)[C@@]2(C)/C=C\1C [Compound 6, 4-acetoxy-2,8-neolemnadien-5-one] | 51 | 36.2 µM | – | PDE7A inhibitory activity (in words) [2]: weak
COc1cc(C=Cc2ccccn2)cc(OC)c1OC [Compound 2, 2-[2-(3,4,5-Trimethoxyphenyl)-ethenyl] pyridine] | 51 | 47.4 µM | 25.5 | –
COc1cc(C=Cc2ccncc2)cc(OC)c1OC [Compound 4, 4-[2-(3,4,5-Trimethoxyphenyl)-ethenyl] pyridine] | 77 | 8.6 µM | 12.6 | –
Cc1ccc([N+](=O)[O-])cc1S(=O)(=O)N(C)C [BRL-50481, reference compound] | – | 0.2 µM | – | –
COc1cc2c(cc1OC)-c1c(OC)c(OC)cc3c1[C@H](C2)N(C)CC3 [Glaucine, reference compound] | – | – | – | IC50 [1]: 59.8 µM
CCCc1nn(C)c2c(=O)[nH]c(-c3cc(S(=O)(=O)N4CCN(C)CC4)ccc3OCC)nc12 [Sildenafil, sildenafil] | – | – | – | IC50 [4, 6]: ~0.1 µM
COc1cc(C=Cc2cccnc2)cc(OC)c1OC [Compound 3, 3-[2-(3,4,5-Trimethoxyphenyl)-ethenyl] pyridine] | 87 | 4.5 µM | 5.7 | –
COc1ccc(-c2oc3c(CC=C(C)C)c(O[C@@H]4O[C@H](CO)[C@@H](O)[C@H](O)[C@H]4O)cc(O)c3c(=O)c2O[C@@H]2O[C@@H](C)[C@H](O)[C@@H](O)[C@H]2O)cc1 [Icariin] | – | – | – | IC50 [5]: 432 nM; IC50 [4]: 642 µM
Cc1nc(-c2cnn(C)c2-c2ccc(C(F)(F)F)cn2)c2c(N3CCC3)ncnn12 [PF-999, PF-05180999, reference compound] | – | – | – | IC50 [1]: 142 µM; IC50 [4, 6]: 45.6 µM
CC(C)Cn1c(=O)n(C)c(=O)c2[nH]cnc21 [IBMX, Isobutylmethylxanthine, reference compound] | – | – | – | IC50 [1]: 28.6 µM; IC50 [4, 6]: 184 µM
COc1ccc(C2CNC(=O)C2)cc1OC1CCCC1 (stereo not shown) [Rolipram, rolipram, reference compound] | 300 | – | – | IC50 [1]: ~0.1 µM; difference in luminescence signal values between rolipram and PBS groups ([1]; rolipram 5 μM, forskolin 5 μM, cAMP cell model): over 1000
Cc1c(O)c(C)c2c(c1O)C(=O)O[C@](C)(O)[C@H]2C [Compound 7, (3S,4S)-sclerotinin A] | 53 | ~5.6 µM and 5.6 µM | 28.2 | PDE4B inhibitory activity (in words) [3]: weak
Clc1cccc(Cl)c1C=Cc1ccccn1 [Compound 1, 2-[2-(2,6-Dichlorophenyl)-ethenyl] pyridine] | 109 | 28.7 µM | 63.7 | –
COc1ccccc1C=Cc1ccc(N(C)C)cc1 [Compound 5, 4-[2-(2-Methoxyphenyl)-ethenyl]-N,N-dimethylbenzenamine] | 55 | 2.1 µM | 14.1 | –
